Assay results reported in patent US8686130B2, “Artificial fluorescent bases” (Riken, priority 2009, dated 2014).
Several values for one entry are separate records, joined by “and”; a condition that tells them apart may be missing. Identical values can stand only once. Like-named read-outs stand apart in the source and are kept apart here.

Tests used:
[1] = Fluorescence characteristics of base analog nucleosides; type: physicochemical; settings: for Fluorescence emitted by excitation at a wavelength of 350 nm or more: excitation 350 nm or more; for Absorption maximum / Excitation wavelength / Fluorescence intensity (ε × φ) / Fluorescence wavelength / Molar absoption coefficient ε / Stokes shift: deoxyribonucleoside derivative; for Quantum yield (φ): quinine sulfate as a standard
Description: Reagents and solvents were purchased from typical suppliers and were used without further purification. ^1H-NMR (300 MHz, 270 MHz) and ^31P-NMR (121 MHz) spectra were recorded on a BRUKER AV300 or JEOL nuclear magnetic resonance spectrometer. Synthesized nucleoside derivatives and nucleoside 5′-triphosphate were purified with a Gilson HPLC system using a fractionation column (Waters Microbond Sphere, C18, 19 mm×150 mm, flow rate: 10 mL/min) and a fractionation column (PEGASIL C8, Senshu Scientific Co., Ltd., 10 mm×150 mm, flow rate: 6 mL/min), respectively. Electrospray-ionization mass spectra (ESI-MS) were recorded on a Waters ZMD 4000 mass system equipped with a Waters 2690 LC system. Fluorescence spectra were measured with a JASCO FP6500 fluorescence spectrometer, and fluorescence quantum yields were determined using quinine sulfate as a standard.
Fluorescence characteristics of nucleosides including an unnatural base, ss, sss, Dss, Dsss, Dsas, Dsav, or Dvas, were evaluated. For comparison, fluorescence characteristics of nucleosides including known unnatural bases, 2-aminopurine, s (2-amino-6-(2-thienyl)purin-9-yl group), v (2-amino-6-(2-thiazolyl)purin-9-yl group), and Ds (7-(2-thienyl)imidazo[4,5-b]pyridin-3-yl group) were also evaluated.

[2] = cited from earlier work
Klenow fragment (exo+) = Klenow fragment (exo+) (Escherichia coli, UniProt P00582); settings: 0.5 μM dDssTP with 10 μM natural base substrate, 37° C.
Klenow fragment (exo+), sequence (P00582 324-928): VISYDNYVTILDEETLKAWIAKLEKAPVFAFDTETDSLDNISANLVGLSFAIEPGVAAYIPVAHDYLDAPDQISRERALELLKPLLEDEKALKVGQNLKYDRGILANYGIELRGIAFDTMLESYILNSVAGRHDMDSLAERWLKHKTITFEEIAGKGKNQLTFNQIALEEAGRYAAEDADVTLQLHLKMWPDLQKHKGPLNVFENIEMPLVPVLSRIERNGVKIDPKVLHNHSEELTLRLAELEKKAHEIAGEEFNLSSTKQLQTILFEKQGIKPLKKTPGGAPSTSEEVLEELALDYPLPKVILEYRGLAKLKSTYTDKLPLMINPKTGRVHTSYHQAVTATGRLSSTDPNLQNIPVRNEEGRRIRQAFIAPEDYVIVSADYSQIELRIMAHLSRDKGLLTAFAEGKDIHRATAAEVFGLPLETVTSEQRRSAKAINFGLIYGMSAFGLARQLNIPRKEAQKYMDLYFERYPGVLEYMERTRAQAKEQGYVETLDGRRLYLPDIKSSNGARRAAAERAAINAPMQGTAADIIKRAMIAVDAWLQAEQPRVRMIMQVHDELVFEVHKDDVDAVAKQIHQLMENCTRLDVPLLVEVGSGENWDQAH
Description: Template strand DNA (SEQ ID NO: 1,35-mer, 400 nM) dissolved in 2× reaction buffer (20 mM tris-HCl, pH 7.5, 14 mM MgCl2, 0.2 mM DTT) and a primer labeled with ^32P at the 5′-end (SEQ ID NO: 2,23-mer, 400 nM) were heated at 95° C. for 3 min and then slowly cooled for annealing to form a double strand. To each 5 μL of the resulting double-stranded DNA solution, 2.5 μL of a 4×dNTP solution mixture (40 μM dTTP, 40 μM dCTP, 0 to 40 μM dDssTP) and 2.5 μL (1 unit) of Klenow fragment (Takara Shuzo Co., Ltd.) diluted with water were added to start the enzyme reaction at 37° C. After incubation at 37° C., the reaction was terminated by addition of a TBE solution containing 10 μL of 10 M urea and heating at 75° C. for 3 min. A part of the reaction solution was subjected to electrophoresis with 15% polyacrylamide-7 M urea gel and analyzed with a bio-imaging analyzer (FLA7000, Fujifilm Corporation).

T7 RNA polymerase = T7 RNA polymerase (Escherichia phage T7, UniProt P00573); settings: 0.05 to 0.1 mM substrate, 1 mM natural NTPs, 37° C., 3 hr
T7 RNA polymerase, sequence (P00573 whole entry): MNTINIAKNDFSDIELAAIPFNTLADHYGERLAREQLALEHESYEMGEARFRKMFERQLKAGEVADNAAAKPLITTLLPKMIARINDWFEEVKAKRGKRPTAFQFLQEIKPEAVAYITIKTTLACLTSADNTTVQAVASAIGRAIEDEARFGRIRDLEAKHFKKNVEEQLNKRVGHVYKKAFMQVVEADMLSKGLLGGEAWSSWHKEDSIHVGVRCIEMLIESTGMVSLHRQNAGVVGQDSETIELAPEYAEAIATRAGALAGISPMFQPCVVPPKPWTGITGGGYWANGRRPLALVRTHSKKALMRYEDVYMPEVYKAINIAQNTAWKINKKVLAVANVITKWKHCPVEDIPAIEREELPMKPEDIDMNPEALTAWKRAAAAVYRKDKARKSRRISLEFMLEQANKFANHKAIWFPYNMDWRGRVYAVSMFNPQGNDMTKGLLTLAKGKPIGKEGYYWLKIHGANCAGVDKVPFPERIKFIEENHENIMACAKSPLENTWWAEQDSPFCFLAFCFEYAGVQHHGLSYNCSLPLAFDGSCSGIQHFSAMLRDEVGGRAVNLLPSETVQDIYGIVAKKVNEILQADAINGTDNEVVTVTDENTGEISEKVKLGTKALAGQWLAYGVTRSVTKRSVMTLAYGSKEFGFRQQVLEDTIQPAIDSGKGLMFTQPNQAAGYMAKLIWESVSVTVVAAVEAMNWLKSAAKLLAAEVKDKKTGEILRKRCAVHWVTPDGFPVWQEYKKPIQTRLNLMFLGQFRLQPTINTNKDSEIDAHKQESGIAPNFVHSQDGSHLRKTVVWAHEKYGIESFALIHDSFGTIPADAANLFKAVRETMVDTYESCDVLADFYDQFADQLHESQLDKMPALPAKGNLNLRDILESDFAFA
Description: Templates for transcription by the T7 polymerase were prepared by heating chemically synthesized two DNA strands (10 μM coding strand (SEQ ID NO: 4) of 35-mer and non-coding strand (SEQ ID NO: 5) of 21-mer) at 95° C. in a 10 mM Tris-HCl buffer (pH 7.6) containing 10 mM NaCl and then slowly cooled to 4° C. for annealing. The transcription by the T7 polymerase was performed by using 2 μM of the template and 50 units of a T7 RNA polymerase (Takara Shuzo Co., Ltd., Kyoto) in a 40 mM Tris-HCl buffer (pH 8.0, 20 μL) containing 24 mM MgCl2, 2 mM spermidine, 5 mM DTT, and 0.01% Triton X-100 in the presence of 1 mM natural NTPs, 0.05 to 0.1 mM ssTP or DssTP (ribonucleoside 5′-triphosphate of ss or Dss). After the reaction at 37° C. for 3 hr, the reaction was terminated by addition of a dye solution (20 μL) containing 10 M urea and 0.05% BPB. […] The transcription product was protected by placing the gel on a TLC containing a fluorescent indicator, irradiating the gel with UV of 254 nm, and photographing the image with a Polaroid camera utilizing the phenomenon that nucleic acid absorbs the UV and thereby the band of the transcription product is detected as an image. The transcript including the unnatural fluorescent base ss or Dss was detected with a bio-imaging analyzer, LAS 4000 (Fujifilm Corporation) utilizing epi-UV LED.

[3] = tested on: mRNA of firefly luciferase; experiment: Suppression of firefly luciferase reporter gene expression by shRNA in HeLa cells (dual luciferase assay); type: cell-based; settings: different shRNA concentrations, read-out: IC50 for suppressing expression of firefly luciferase gene
Description: In this Example, various shRNAs prepared by T7 transcription and gel purification were introduced into HeLa cells by lipofection together with a plasmid encoding a target reporter gene (firefly luciferase) and a control plasmid endocing a Renilla luciferase gene. Suppression of the target gene expression was investigated based on the luminescence of luciferase. […]
HeLa cells were seeded at 1.5×10^4 cells (100 μL of culture medium)/well in a 96-well plate and were cultured in an MEM medium containing 10% fetal bovine serum but not containing antibiotics for 24 hr. […] After culturing for 22 hr, the intensity of luminescence emitted from each of the two types of luciferase proteins was determined.
The effect of suppressing expression of the firefly luciferase protein, which is the target of shRNA, was analyzed by the intensities of luminescence emitted from the firefly luciferase and Renilla luciferase using dual luciferase reporter assay reagent (Promega Corporation). […] The resulting solution was mixed with 100 μL of LAR II reagent, and the luminescence of the firefly luciferase was detected (exposure time: 120 sec) with LAS 4000 (Fujifilm Corporation), then, 100 μL of Stop & Glo reagent was added thereto, and the luminescence of the Renilla luciferase was detected (exposure time: 200 sec). […]

[4] = from Ward et al., J. Biol. Chem. 1969

Nc1ncc2[nH]cnc2n1 [2-aminopurine]
Fluorescence emitted by excitation at a wavelength of 350 nm or more [1]: considerably low
Absorption maximum [2, 4]: 304 nm
Excitation wavelength [2, 4]: about 300 nm
Fluorescence intensity (ε × φ) [2, 4]: 4828
Fluorescence wavelength [2, 4]: 370 nm
Molar absoption coefficient ε [2, 4]: 7100 M⁻¹ cm⁻¹
Quantum yield (φ) [2, 4]: 0.68
Stokes shift [2, 4]: 67 nm
Excitation wavelength ([2]; from Ward et al., J. Biol. Chem. 1969, listed as 2-aminoprine): 303 nm

Nc1nc(-c2nccs2)c2ncn([C@H]3C[C@H](O)[C@@H](CO)O3)c2n1 [dv, reference compound]
Absorption maximum [1]: 363 nm
Excitation wavelength [1]: 363 nm and 357 nm
Fluorescence intensity (ε × φ) [1]: 3444
Fluorescence wavelength [1]: 461 nm
Molar absoption coefficient ε [1]: 8400 M⁻¹ cm⁻¹
Stokes shift [1]: 104 nm
Quantum yield (φ) [1]: 0.41
Stability of nucleoside derivative under basic conditions: low stability

OC[C@H]1O[C@@H](n2cnc3c(-c4ccc(-c5cccs5)s4)ccnc32)C[C@@H]1O [dDss, 7-(2,2′-bithien-5-yl)-3-(2-deoxy-β-D-ribofuranosyl)imidazo[4,5-b]pyridine]
Absorption maximum [1]: 370 nm
Excitation wavelength [1]: 371 nm
Fluorescence intensity (ε × φ) [1]: 10400
Fluorescence wavelength [1]: 442 nm
Molar absoption coefficient ε [1]: 32500 M⁻¹ cm⁻¹
Stokes shift [1]: 71 nm
Quantum yield (φ) [1]: 0.32

O=P(O)(O)OP(=O)(O)OP(=O)(O)OC[C@H]1O[C@@H](n2cnc3c(-c4ccc(-c5cccs5)s4)ccnc32)C[C@@H]1O [dDssTP, 7-(2,2′-bithien-5-yl)-3-(2-deoxy-β-D-ribofuranosyl)imidazo[4,5-b]pyridine 5′-triphosphate]
Incorporation into DNA opposite Pa in template DNA (Klenow fragment (exo+)): selectively incorporated into a complementary DNA strand

O=P(O)(O)OP(=O)(O)OP(=O)(O)OC[C@H]1O[C@@H](n2cnc3c(-c4ccc(-c5cccs5)s4)ccnc32)[C@H](O)[C@@H]1O [DssTP, 7-(2,2′-bithien-5-yl)-3-(β-D-ribofuranosyl)imidazo[4,5-b]pyridine 5′-triphosphate]
Incorporation into RNA opposite Pa in template DNA (T7 RNA polymerase): selectively incorporated into RNA depending on Pa

c1csc(-c2ccnc3nc[nH]c23)c1 [ds, 7-(2-thienyl)-imidazo[4,5-b]pyridine, reference compound]
Absorption maximum [1]: 353 nm
Excitation wavelength [1]: 350 nm and 351 nm
Fluorescence intensity (ε × φ) [1]: 2576
Fluorescence wavelength [1]: 429 nm
Molar absoption coefficient ε [1]: 11200 M⁻¹ cm⁻¹
Stokes shift [1]: 78 nm
Quantum yield (φ) [1]: 0.23
Fluorescence by excitation at a wavelength of 350 nm or more ([2]; background art): substantially invisible to the naked eye

OC[C@H]1O[C@@H](n2ccc3c(-c4ncc(-c5cccs5)s4)ccnc32)C[C@@H]1O [dDvas, 1-[2-deoxy-β-D-ribofuranosyl]-4-[5-(2-thienyl)thiazol-2-yl]pyrrolo[2,3-b]pyridine]
Absorption maximum [1]: 377 nm
Excitation wavelength [1]: 378 nm
Fluorescence intensity (ε × φ) [1]: 3780
Fluorescence wavelength [1]: 449 nm
Molar absoption coefficient ε [1]: 27000 M⁻¹ cm⁻¹
Stokes shift [1]: 71 nm
Quantum yield (φ) [1]: 0.14

Nc1nc(-c2ccc(-c3cccs3)s2)c2ncn([C@@H]3O[C@H](COP(=O)(O)OP(=O)(O)OP(=O)(O)O)[C@@H](O)[C@H]3O)c2n1 [ssTP]
Incorporation into RNA opposite Pa in template DNA (T7 RNA polymerase): selectively incorporated into RNA depending on Pa

OC[C@H]1O[C@@H](n2ccc3c(-c4ccc(-c5nccs5)s4)ccnc32)C[C@@H]1O [dDsav, 1-[2-deoxy-β-D-ribofuranosyl]-4-[2-(2-thiazolyl)thien-5-yl]pyrrolo[2,3-b]pyridine]
Absorption maximum [1]: 365 nm
Excitation wavelength [1]: 368 nm
Fluorescence intensity (ε × φ) [1]: 2795
Fluorescence wavelength [1]: 445 nm
Molar absoption coefficient ε [1]: 21500 M⁻¹ cm⁻¹
Stokes shift [1]: 77 nm
Quantum yield (φ) [1]: 0.13

OC[C@H]1O[C@@H](n2cnc3c(-c4cccs4)ccnc32)C[C@@H]1O [dDs, reference compound]
Absorption maximum [1]: 313 nm
Fluorescence intensity (ε × φ) [1]: 4180
Fluorescence wavelength [1]: 366 nm
Molar absoption coefficient ε [1]: 22000 M⁻¹ cm⁻¹
Stokes shift [1]: 54 nm
Fluorescence emitted by excitation at a wavelength of 350 nm or more [1]: does not emit light
Quantum yield (φ) [1]: 0.19

Nc1nc(-c2cccs2)c2[nH]cnc2n1 [s, 2-amino-6-thienylpurine]
Fluorescence wavelength ([2]; background art): 435 nm
Maximum excitation wavelength ([2]; background art): 348 nm

OC[C@H]1O[C@@H](n2ccc3c(-c4ccc(-c5cccs5)s4)ccnc32)C[C@@H]1O [dDsas, 1-[2-deoxy-β-D-ribofuranosyl]-4-(2,2′-bithien-5-yl)-pyrrolo[2,3-b]pyridine]
Absorption maximum [1]: 365 nm
Excitation wavelength [1]: 367 nm
Fluorescence intensity (ε × φ) [1]: 2795
Fluorescence wavelength [1]: 451 nm
Molar absoption coefficient ε [1]: 21500 M⁻¹ cm⁻¹
Stokes shift [1]: 84 nm
Quantum yield (φ) [1]: 0.13

shRNAF1 WT: 52-mer short hairpin RNA (SEQ ID NO: 10) targeting mRNA of firefly luciferase, A36 unsubstituted (GGAGCCUUCAGGAUUACAAGAUUCAAGAGUCUUGUAAUCCUGAAGGCUCCUU; short hairpin RNA, synthesis route not given here, further chemistry not given here)
IC50 [3]: ~0.02 nM

OC[C@H]1O[C@@H](n2cnc3c(-c4ccc(-c5ccc(-c6cccs6)s5)s4)ccnc32)C[C@@H]1O [dDsss, 7-(2,2′,5′,2″-terthien-5-yl)-3-(2-deoxy-β-D-ribofuranosyl)imidazo[4,5-b]pyridine]
Absorption maximum [1]: 403 nm
Excitation wavelength [1]: 407 nm
Fluorescence intensity (ε × φ) [1]: 3132
Fluorescence wavelength [1]: 489 nm
Molar absoption coefficient ε [1]: 34800 M⁻¹ cm⁻¹
Stokes shift [1]: 82 nm
Quantum yield (φ) [1]: 0.09

Nc1nc(-c2ccc(-c3ccc(-c4cccs4)s3)s2)c2ncn([C@H]3C[C@H](O)[C@@H](CO)O3)c2n1 [dsss, 2-amino-6-(2,2′,5′,2″-terthien-5-yl)-9-(2-deoxy-β-D-ribofuranosyl)purine]
Absorption maximum [1]: 414 nm
Excitation wavelength [1]: 419 nm
Fluorescence intensity (ε × φ) [1]: 4928
Fluorescence wavelength [1]: 508 nm
Molar absoption coefficient ε [1]: 44800 M⁻¹ cm⁻¹
Stokes shift [1]: 89 nm
Quantum yield (φ) [1]: 0.11
